According to patent publication US10669290B2, “Beta-lactamase inhibitors” (priority 2012, dated 2020):

Tests used:
Type in all cases: cell-based
[1] = system: E. coli ESBL4 CTX-M-15; assay: Broth microdilution MIC, E. coli ESBL4; details: Escherichia coli, ESBL4CTXM15; fixed ceftazidime 4 μg/mL, CAMHB, 16-20 hours 37° C.; read-out: MIC of exemplary compounds in presence of fixed β-lactams, Fixed CAZ, E. coli ESBL4 CTX-M-15
Procedure, shortened: (§1)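 Strains grew 3-5 hours in CAMHB before use. Serial 2-fold compound dilutions (final 32 to 0.25 μg/mL) were overlaid with β-lactam at a constant 4 μg/ml, inoculated following CLSI, then incubated 16-20 h at 37° C before visual MIC determination.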

[2] = system: E. cl 144200 p99 AmpC; assay: Broth microdilution MIC, E. cloacae 144200; details: Enterobacter cloacae; fixed ceftazidime 4 μg/mL, CAMHB, 16-20 hours 37° C.; read-out: MIC of exemplary compounds in presence of fixed β-lactams, Fixed CAZ, E. cl 144200 p99 AmpC
Procedure, shortened: as §1

[3] = system: K.P. 156319 KPC-3; assay: Broth microdilution MIC, K. pneumoniae 156319; details: Klebsiella pneumoniae; fixed meropenem 4 μg/mL, CAMHB, 16-20 hours 37° C.; read-out: MIC of exemplary compounds in presence of fixed β-lactams, Fixed Mero, K.P. 156319 KPC-3
[4] = system: P. aerug. Ps296 VIM-2; assay: Broth microdilution MIC, P. aeruginosa Ps296; details: Pseudomonas aeruginosa; fixed meropenem 4 μg/mL, CAMHB, 16-20 hours 37° C.; read-out: MIC of exemplary compounds in presence of fixed β-lactams, Fixed Mero, P. aerug. Ps296 VIM-2
Procedure, shortened: as §1

[5] = system: K.P. A-1797 KPC-2 VIM-4; assay: Broth microdilution MIC, K. pneumoniae A-1797; details: Klebsiella pneumoniae; fixed meropenem 4 μg/mL, CAMHB, 16-20 hours 37° C.; read-out: MIC of exemplary compounds in presence of fixed β-lactams, Fixed Mero, K.P. A-1797 KPC-2 VIM-4
[6] = system: S. aureus MSSA-7 PC-1; assay: Broth microdilution MIC, S. aureus MSSA-7; details: Staphylococcus aureus, fixed piperacillin 4 μg/mL, CAMHB, 16-20 hours 37° C., read-out: MIC of exemplary compounds in presence of fixed β-lactams, Fixed Pip, S. aureus MSSA-7 PC-1

Structure (SMILES) | MIC [1] [µg/mL] | MIC [2] [µg/mL] | MIC [3] [µg/mL] | MIC [4] [µg/mL] | MIC [5] [µg/mL] | MIC [6] [µg/mL]
O=C(CC1CCC(N2CCOCC2)CC1)N[C@H]1Cc2cccc(C(=O)O)c2OB1O (stereo partly drawn) [Example 40, (R)-2-hydroxy-3-(2-(4-morpholinocyclohexyl)acetamido)-3,4-dihydro-2H-benzo[e][1,2]oxaborinine-8-carboxylic acid] | < 4 | < 4 | < 4 | > 32 | > 32 | < 4
COC(=O)NCCN[C@H]1CC[C@H](CC(=O)N[C@H]2Cc3cccc(C(=O)O)c3OB2O)CC1 [Example 54, (R)-2-hydroxy-3-(2-(trans-4-(2-(methoxycarbonylamino)ethylamino)cyclohexyl)acetamido)-3,4-dihydro-2H-benzo[e][1,2]oxaborinine-8-carboxylic acid] | < 4 | < 4 | < 4 | < 4 | 8 to 32 | < 4
C[C@H](N)CN[C@H]1CC[C@H](CC(=O)N[C@H]2Cc3cccc(C(=O)O)c3OB2O)CC1 [Example 53, (R)-3-(2-(trans-4-((S)-2-aminopropylamino)cyclohexyl)acetamido)-2-hydroxy-3,4-dihydro-2H-benzo[e][1,2]oxaborinine-8-carboxylic acid] | < 4 | < 4 | < 4 | < 4 | < 4 | < 4
O=C(C[C@H]1CC[C@H](N2C=NCC2)CC1)N[C@H]1Cc2cccc(C(=O)O)c2OB1O [Example 29, (R)-3-(2-(trans-4-(4,5-dihydro-1H-imidazol-1-yl)cyclohexyl)acetamido)-2-hydroxy-3,4-dihydro-2H-benzo[e][1,2]oxaborinine-8-carboxylic acid] | < 4 | < 4 | < 4 | 8 to 32 | > 32 | < 4
N[C@H](CO)CN[C@H]1CC[C@H](CC(=O)N[C@H]2Cc3cccc(C(=O)O)c3OB2O)CC1 [Example 67, (R)-3-(2-(trans-4-((S)-2-amino-3-hydroxypropylamino)cyclohexyl)acetamido)-2-hydroxy-3,4-dihydro-2H-benzol[e][1,2]oxaborinine-8-carboxylic acid] | < 4 | < 4 | < 4 | < 4 | < 4 | < 4
CS(=O)(=O)NCCN[C@H]1CC[C@H](CC(=O)N[C@H]2Cc3cccc(C(=O)O)c3OB2O)CC1 [Example 49, (R)-2-hydroxy-3-(2-(trans-4-(2-(methylsulfonamido)ethylamino)cyclohexyl)acetamido)-3,4-dihydro-2H-benzo[e][1,2]oxaborinine-8-carboxylic acid] | < 4 | < 4 | < 4 | 8 to 32 | 8 to 32 | < 4
N[C@H]1CC[C@H](CCC(=O)N[C@H]2Cc3cccc(C(=O)O)c3OB2O)CC1 [Example 21, (R)-3-(3-(trans-4-aminocyclohexyl)propanamido)-2-hydroxy-3,4-dihydro-2H-benzo[e][1,2]oxaborinine-8-carboxylic acid] | < 4 | < 4 | < 4 | 8 to 32 | > 32 | < 4
O=C(C[C@H]1CC[C@H](NCCNCCO)CC1)N[C@H]1Cc2cccc(C(=O)O)c2OB1O [Example 61, (R)-2-hydroxy-3-(2-(trans-4-(2-(2-hydroxyethylamino)ethylamino)cyclohexyl)acetamido)-3,4-dihydro-2H-benzo[e][1,2]oxaborinine-8-carboxylic acid] | < 4 | < 4 | < 4 | < 4 | < 4 | < 4

Results, then the molecule that gave them:

MIC [1] [µg/mL] | MIC [2] [µg/mL] | MIC [3] [µg/mL] | MIC [4] [µg/mL] | MIC [5] [µg/mL] | MIC [6] [µg/mL] | Structure (SMILES)
< 4 | < 4 | < 4 | < 4 | < 4 | < 4 | O=C(C[C@H]1CC[C@H](NCCN(CC2CC2)CC2CC2)CC1)N[C@H]1Cc2cccc(C(=O)O)c2OB1O [Example 75, (R)-3-(2-(trans-4-(2-(bis(cyclopropylmethyl)amino)ethylamino)cyclohexyl)acetamido)-2-hydroxy-3,4-dihydro-2H-benzo[e][1,2]oxaborinine-8-carboxylic acid]
< 4 | < 4 | < 4 | < 4 | 8 to 32 | < 4 | NCC(N)[C@H]1CC[C@H](CC(=O)N[C@H]2Cc3cccc(C(=O)O)c3OB2O)CC1 (stereo partly drawn) [Example 77, (R)-3-(2-(trans-4-(1,2-diaminoethyl)cyclohexyl)acetamido)-2-hydroxy-3,4-dihydro-2H-benzo[e][1,2]oxaborinine-8-carboxylic acid]
< 4 | < 4 | < 4 | < 4 | < 4 | 8 to 32 | N[C@H]1CC[C@H](C(=O)N[C@H]2Cc3cccc(C(=O)O)c3OB2O)CC1 [Example 2, (R)-3-(trans-4-aminocyclohexanecarboxamido)-2-hydroxy-3,4-dihydro-2H-benzol[e][1,2]oxaborinine-8-carboxylic acid]
< 4 | < 4 | < 4 | 8 to 32 | 8 to 32 | < 4 | N=CN[C@H]1CC[C@H](CC(=O)N[C@H]2Cc3cccc(C(=O)O)c3OB2O)CC1 [Example 30, (R)-3-(2-(trans-4-formimidamidocyclohexyl)acetamido)-2-hydroxy-3,4-dihydro-2H-benzo[e][1,2]oxaborinine-8-carboxylic acid]
